# According to publication PMC12246642 (iScience, 2025):
# Where a SMILES comes first, the peptide text is derived from it. [ ]: non-standard residue; d: D form. The star is where a group is joined. Met(O2) = CS(=O)(=O)CC[C@H](N)C(=O)O; Ala(cPr) = N[C@@H](CC1CC1)C(=O)O; Cbz = O=C(OCc1ccccc1)*
# Key:
# SARS-CoV-2 Mpro [1] = molecular target: T1, SARS-CoV-2 Mpro (Severe acute respiratory syndrome coronavirus 2, UniProt P0DTD1); test: biochemical; type: biochemical; details: for IC50 / Ki: Kinetics N = 2 (95% CI); for IC50: 4-parameter fit of the same data; for Ki: Morrison fit, 1 nM Mpro, 800 mM citrate buffer, 15 min preincubation
# SARS-CoV-2 Mpro [2] = molecular target: T1, SARS-CoV-2 Mpro; test: Covalent bond (adduct) formation kinetics by IR-MALDESI intact protein MS; type: binding; details: for kobs (95 % CI) Quenched, SPR / kobs (95 % CI) for adduct formation: SPR buffer; for kobs (95 % CI) Quenched, SPR / kobs (95 % CI) Quenched, Citrate: quenched with 200 μM compound 9, 10 μM compound and Mpro, Figure S5; for kobs (95 % CI) Quenched, Citrate: citrate buffer, only estimated for lack of early timepoints; for kobs (95 % CI) for adduct formation: Figure 2
# SARS-CoV-2 = test: Anti-viral potency: inhibition of in vitro replication of SARS-CoV-2 in A549 cells; type: cell-based; details: for EC50: Severe acute respiratory syndrome coronavirus 2, A549 cells, 10-point titration from 50 μM, triplicate
# [3] = type: physicochemical; details: 500 μM, monitored for 10 h at 16-min intervals
# SARS-CoV-2 Mpro [4] = molecular target: T1, SARS-CoV-2 Mpro; type: binding; details: 40 μM 15N-labeled deuterated Mpro, 20 or 40 μM compound, SPR buffer
# SARS-CoV-2 Mpro [5] = molecular target: T1, SARS-CoV-2 Mpro; type: binding; details: 300 μM 13C-labeled compound, 100 μM Mpro, SPR buffer; for covalent adduct formation with Cys145 seen by 13C NMR: up to 3 h (compound 1) or 6 h (compound 5)
# [6] = first determination, 4-parameter IC50 fit
# [7] = second determination, 4-parameter IC50 fit
Structure (SMILES),Hill slope (SARS-CoV-2 Mpro [1]; 4-parameter IC50 refit),Hill slope (SARS-CoV-2 Mpro [1]; [6]),Hill slope (SARS-CoV-2 Mpro [1]; [7]),"kobs (95 % CI) Quenched, SPR (SARS-CoV-2 Mpro [2]) [Min -1]","kobs (95 % CI) Quenched, Citrate (SARS-CoV-2 Mpro [2]) [Min -1]",EC50 (SARS-CoV-2) [µM],epimerization at P1: αH resonance in D2O SPR buffer [3],exchange regime of binding on the NMR timescale (SARS-CoV-2 Mpro [4]),kobs (95 % CI) for adduct formation (SARS-CoV-2 Mpro [2]; Ratio Cmpd:Mpro 1:1),kobs (95 % CI) for adduct formation (SARS-CoV-2 Mpro [2]; Ratio Cmpd:Mpro 2:1),kobs (95 % CI) for adduct formation (SARS-CoV-2 Mpro [2]; Ratio Cmpd:Mpro 5:1),non-covalently bound form seen by 13C NMR (SARS-CoV-2 Mpro [5]; extended incubation),covalent adduct formation with Cys145 seen by 13C NMR (SARS-CoV-2 Mpro [5]),decrease of cellular EC50 versus the Ki determined in citrate buffer (SARS-CoV-2; EC50 in A549 cells versus Ki) [fold],IC50 (SARS-CoV-2 Mpro [1]; first determination) [µM],Ki (SARS-CoV-2 Mpro [1]; first determination) [µM],IC50 (SARS-CoV-2 Mpro [1]; second determination) [µM],Ki (SARS-CoV-2 Mpro [1]; second determination) [µM]
"COc1cccc2[nH]c(C(=O)N[C@@H](CC3CC3)C(=O)N[C@H](C=O)CCS(C)(=O)=O)cc12 [Compound 3, N-((S)-3-cyclopropyl-1-(((S)-4-(methylsulfonyl)-1-oxobutan-2-yl)amino)-1-oxopropan-2-yl)-4-methoxy-1H-indole-2-carboxamide]",1.5,1.5,1.5,0.18,0.30,,,,,,,,,,,,,
"COc1cccc2[nH]c(C(=O)N[C@@H](CC3CC3)C(=O)N[C@H](C=O)C[C@@H]3CCNC3=O)cc12 [Compound 1, N-((S)-3-cyclopropyl-1-oxo-1-(((S)-1-oxo-3-((S)-2-oxopyrrolidin-3-yl)propan-2-yl)amino)propan-2-yl)-4-methoxy-1H-indole-2-carboxamide]",greater than 1,3.1,2.0,0.13,0.31,6.2,no change in intensity,slow exchange regime,0.11 (0.04919 to 0.2232),0.34 (0.1598 to 0.8874),2.0 (1.597 to 2.492),stably bound to Mpro non-covalently,thiohemiacetal formation,,,,,
"COc1cccc2[nH]c(C(=O)N[C@@H](CC3CC3)C(=O)N[C@H](C#N)C[C@@H]3CCNC3=O)cc12 [Compound 5, N-((S)-1-(((S)-1-cyano-2-((S)-2-oxopyrrolidin-3-yl)ethyl)amino)-3-cyclopropyl-1-oxopropan-2-yl)-4-methoxy-1H-indole-2-carboxamide]",,1.0,1,1.2,0.47,3.2,,fast exchange regime,0.33 (0.2393 to 0.4596),0.40 (0.2513 to 0.6949),1.6 (0.7658 to 3.045),,no new peaks emerged to suggest thioimidate formation,760,,,,
"N#C[C@H](C[C@@H]1CCNC1=O)NC(=O)[C@H](CC1CC1)NC(=O)OCc1ccccc1 [Compound 6, benzyl ((S)-1-(((S)-1-cyano-2-((S)-2-oxopyrrolidin-3-yl)ethyl)amino)-3-cyclopropyl-1-oxopropan-2-yl)carbamate]",,1.1,1.0,0.08,0.34,13,,,,,,,,,,,,
"CS(=O)(=O)CC[C@@H](C#N)NC(=O)[C@H](CC1CC1)NC(=O)OCc1ccccc1 [Compound 8, benzyl ((S)-1-(((S)-1-cyano-3-(methylsulfonyl)propyl)amino)-3-cyclopropyl-1-oxopropan-2-yl)carbamate]",,,,,,,,,,,,,,,> 12.5,> 12.5,> 12.5,> 12.5
"COc1cccc2[nH]c(C(=O)N[C@@H](CC3CC3)C(=O)N[C@H](C#N)CCS(C)(=O)=O)cc12 [Compound 7, N-((S)-1-(((S)-1-cyano-3-(methylsulfonyl)propyl)amino)-3-cyclopropyl-1-oxopropan-2-yl)-4-methoxy-1H-indole-2-carboxamide]",,0.6,,,,> 50,,,,,,,,,,,,
"O=C[C@H](C[C@@H]1CCNC1=O)NC(=O)[C@H](CC1CC1)NC(=O)OCc1ccccc1 [Compound 2, benzyl ((S)-3-cyclopropyl-1-oxo-1-(((S)-1-oxo-3-((S)-2-oxopyrrolidin-3-yl)propan-2-yl)amino)propan-2-yl)carbamate]",greater than 1,2.7,2.5,0.49,0.85,3.3,,,,,,,,,,,,
"CS(=O)(=O)CC[C@@H](C=O)NC(=O)[C@H](CC1CC1)NC(=O)OCc1ccccc1 [Compound 4, benzyl ((S)-3-cyclopropyl-1-(((S)-4-(methylsulfonyl)-1-oxobutan-2-yl)amino)-1-oxopropan-2-yl)carbamate] (Cbz-[Ala(cPr)]-[Met(O2)]-aldehyde)",,1.0,1.0,0.29,0.35,22,,,,,,,,,,,,
